IC50 data for 19 compounds are collected here from US9085606B2, “Beta amino acid derivatives as integrin antagonists” (Saint Louis University, priority 2012, dated 2015).

Test [1] deals with T1, Recombinant human integrin α5β1 (Homo sapiens, UniProt P05556+P08648).
T1 construct: purchased R&D Systems 3230-A5
Put plainly: Solid Phase Receptor Assay for α5β1 Function. The note with it: binding to fibronectin-coated plate; read-out: α5β1 SPRA IC50. The protocol: Solid Phase Receptor Assay for α5β1 Function.
Wells were washed 3 times with 150 μL TBS+ and 150 μl of blocking buffer (TBS+ with 1% bovine serum albumin, Sigma A7906) were added. The plate was incubated for 1 hr at 37° C. and then washed 3× with TBS+ buffer. […] Compounds were diluted 1:100 into the integrin solution and then 50 μL added to empty wells of the washed fibronectin-coated plate according to a standard template with each sample repeated in triplicate. After incubation for two hours at room temperature, the plate was washed 3× with 150 μL of TBS+ buffer. To each well, 50 μL of biotinylated anti-α5 antibody (R&D Systems, BAF1864) at 0.5 ug/mL in TBS+/0.1% BSA were added and the plate covered and incubated for 1 hr at room temperature. After washing the plate 3× with 150 μL of TBS+ buffer, 50 μL of streptavidin-conjugated horseradish peroxidase (R&D Systems, DY998) diluted in TBS+ blocking buffer were added to the wells and the plate incubated for 20 min at room temperature. The plate was washed 3× with TBS+ buffer followed by 50 μL of room temperature TMB substrate (Sigma, T444) added to each well and the plate incubated for 20 min at room temperature. The reaction was optionally stopped with 25 μL of Stop Solution (Sigma S5689). Plates were read by colorimetric detection at 650 nm wavelength using a Tecan Safire II plate reader.

Test [2] deals with T2, Recombinant human integrin αvβ8 (Homo sapiens, UniProt P06756+P26012).
T2 construct: purchased R&D Systems 4135-AV
T2 sequence (P06756 31-992 limits assumed): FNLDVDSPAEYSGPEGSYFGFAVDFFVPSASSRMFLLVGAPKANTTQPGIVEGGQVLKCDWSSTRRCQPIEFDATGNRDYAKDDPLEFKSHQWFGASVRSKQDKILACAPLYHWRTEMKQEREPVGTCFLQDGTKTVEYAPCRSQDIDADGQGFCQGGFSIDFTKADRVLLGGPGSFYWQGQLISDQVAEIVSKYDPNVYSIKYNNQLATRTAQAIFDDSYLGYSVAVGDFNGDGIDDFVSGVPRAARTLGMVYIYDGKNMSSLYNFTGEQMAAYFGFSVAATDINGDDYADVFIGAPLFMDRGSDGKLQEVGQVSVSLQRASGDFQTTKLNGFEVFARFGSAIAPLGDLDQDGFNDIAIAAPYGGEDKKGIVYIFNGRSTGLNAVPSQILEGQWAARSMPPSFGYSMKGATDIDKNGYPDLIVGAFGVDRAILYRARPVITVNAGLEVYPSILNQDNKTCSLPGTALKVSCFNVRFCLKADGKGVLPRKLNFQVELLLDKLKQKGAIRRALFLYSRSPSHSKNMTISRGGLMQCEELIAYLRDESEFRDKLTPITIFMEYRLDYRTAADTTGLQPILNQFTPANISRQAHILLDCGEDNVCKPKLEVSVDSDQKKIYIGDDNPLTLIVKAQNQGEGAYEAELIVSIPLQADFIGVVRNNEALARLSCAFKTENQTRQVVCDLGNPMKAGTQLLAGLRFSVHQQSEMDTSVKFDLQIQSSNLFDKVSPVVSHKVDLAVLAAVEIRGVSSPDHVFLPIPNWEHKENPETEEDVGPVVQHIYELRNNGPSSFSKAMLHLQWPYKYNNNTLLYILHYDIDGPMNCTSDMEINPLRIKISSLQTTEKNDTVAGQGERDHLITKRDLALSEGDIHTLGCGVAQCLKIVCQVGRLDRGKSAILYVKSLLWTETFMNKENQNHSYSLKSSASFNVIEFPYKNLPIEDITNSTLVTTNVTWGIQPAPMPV
T2 sequence (P26012 43-684 limits assumed): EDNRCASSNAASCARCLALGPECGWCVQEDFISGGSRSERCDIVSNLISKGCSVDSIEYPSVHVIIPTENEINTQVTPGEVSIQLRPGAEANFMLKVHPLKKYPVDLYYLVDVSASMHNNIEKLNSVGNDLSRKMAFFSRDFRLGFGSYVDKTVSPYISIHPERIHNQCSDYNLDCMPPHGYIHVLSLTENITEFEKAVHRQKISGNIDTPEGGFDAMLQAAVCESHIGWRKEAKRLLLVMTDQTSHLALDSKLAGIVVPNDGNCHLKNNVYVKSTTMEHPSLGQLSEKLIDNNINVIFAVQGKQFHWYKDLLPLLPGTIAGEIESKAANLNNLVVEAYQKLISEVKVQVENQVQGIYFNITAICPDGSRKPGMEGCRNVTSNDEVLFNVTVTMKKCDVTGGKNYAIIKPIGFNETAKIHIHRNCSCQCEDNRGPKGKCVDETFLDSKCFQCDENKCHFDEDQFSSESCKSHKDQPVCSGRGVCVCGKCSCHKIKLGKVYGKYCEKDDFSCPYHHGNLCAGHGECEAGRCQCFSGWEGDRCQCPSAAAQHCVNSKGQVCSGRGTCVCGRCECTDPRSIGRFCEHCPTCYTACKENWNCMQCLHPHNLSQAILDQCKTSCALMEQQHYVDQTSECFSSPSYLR
Put plainly: Solid Phase Receptor Assay for αvβ8 Function. The note with it: binding to LAP-coated plate; read-out: αvβ8 SPRA IC50. The protocol:
Solid Phase Receptor Assay for αvβ8 Function.
Wells were washed 3 times with 150 μL TBS+ and 150 μL of blocking buffer (TBS+ with 1% bovine serum albumin, Sigma A7906) were added. The plate was incubated for 1 hr at 37° C. and then washed 3× with TBS+. […] Compounds were diluted 1:100 into the integrin solution and 50 μL added to empty wells of the washed LAP-coated plate according to a standard template with each sample repeated in triplicate. After incubation for two hours at room temperature, the plate was washed 3× with 150 μL of TBS+. To each well, 50 μL of biotinylated anti-αv antibody (R&D Systems, BAF1219) at 1 μg/mL in TBS+/0.1% BSA were added and the plate was covered and incubated for 1 hr at room temperature. After washing the plate 3× with 150 μL of TBS+ buffer, 50 μL of streptavidin-conjugated horseradish peroxidase (R&D Systems, DY998) diluted in TBS+ blocking buffer were added to the wells and the plate incubated for 20 min at room temperature. The plate was washed 3× with TBS+ followed by 50 μL of TMB substrate (Sigma T4444) added to each well and the plate incubated for 20 min at room temperature. The reaction was optionally stopped with 25 μL of Stop Solution (Sigma S5689). Plates were read by colorimetric detection at 650 nm wavelength using a Tecan Safire II plate reader.

Each structure is given as a SMILES string.

A word on the IC50: it is the concentration needed to halve the response being measured.

T1 sequence (P08648 42-995 limits assumed): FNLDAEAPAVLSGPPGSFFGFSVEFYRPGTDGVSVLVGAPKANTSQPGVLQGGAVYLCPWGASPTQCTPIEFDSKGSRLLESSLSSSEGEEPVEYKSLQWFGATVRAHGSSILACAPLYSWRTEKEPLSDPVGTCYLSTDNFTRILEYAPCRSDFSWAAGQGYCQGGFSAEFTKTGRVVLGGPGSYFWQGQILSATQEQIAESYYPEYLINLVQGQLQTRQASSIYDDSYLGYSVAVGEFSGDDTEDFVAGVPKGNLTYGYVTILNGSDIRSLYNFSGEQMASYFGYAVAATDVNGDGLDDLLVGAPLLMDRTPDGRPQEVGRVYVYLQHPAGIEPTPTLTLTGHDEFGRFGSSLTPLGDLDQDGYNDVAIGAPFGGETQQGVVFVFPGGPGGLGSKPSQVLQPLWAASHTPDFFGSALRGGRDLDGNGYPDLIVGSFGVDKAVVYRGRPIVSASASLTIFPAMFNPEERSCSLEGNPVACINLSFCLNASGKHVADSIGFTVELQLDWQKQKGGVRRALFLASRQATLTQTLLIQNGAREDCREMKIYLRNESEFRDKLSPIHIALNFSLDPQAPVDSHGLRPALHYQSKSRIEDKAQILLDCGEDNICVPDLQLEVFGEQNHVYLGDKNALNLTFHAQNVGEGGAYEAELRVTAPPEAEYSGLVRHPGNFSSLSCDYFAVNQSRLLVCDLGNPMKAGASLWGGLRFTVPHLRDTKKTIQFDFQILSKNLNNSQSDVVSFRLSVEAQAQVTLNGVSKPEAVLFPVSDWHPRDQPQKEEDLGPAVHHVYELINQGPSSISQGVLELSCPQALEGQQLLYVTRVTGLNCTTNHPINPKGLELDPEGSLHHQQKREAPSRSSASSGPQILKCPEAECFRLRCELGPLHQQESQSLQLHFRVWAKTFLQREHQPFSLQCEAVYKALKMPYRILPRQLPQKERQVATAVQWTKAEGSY
T1 sequence (P05556 21-728 limits assumed): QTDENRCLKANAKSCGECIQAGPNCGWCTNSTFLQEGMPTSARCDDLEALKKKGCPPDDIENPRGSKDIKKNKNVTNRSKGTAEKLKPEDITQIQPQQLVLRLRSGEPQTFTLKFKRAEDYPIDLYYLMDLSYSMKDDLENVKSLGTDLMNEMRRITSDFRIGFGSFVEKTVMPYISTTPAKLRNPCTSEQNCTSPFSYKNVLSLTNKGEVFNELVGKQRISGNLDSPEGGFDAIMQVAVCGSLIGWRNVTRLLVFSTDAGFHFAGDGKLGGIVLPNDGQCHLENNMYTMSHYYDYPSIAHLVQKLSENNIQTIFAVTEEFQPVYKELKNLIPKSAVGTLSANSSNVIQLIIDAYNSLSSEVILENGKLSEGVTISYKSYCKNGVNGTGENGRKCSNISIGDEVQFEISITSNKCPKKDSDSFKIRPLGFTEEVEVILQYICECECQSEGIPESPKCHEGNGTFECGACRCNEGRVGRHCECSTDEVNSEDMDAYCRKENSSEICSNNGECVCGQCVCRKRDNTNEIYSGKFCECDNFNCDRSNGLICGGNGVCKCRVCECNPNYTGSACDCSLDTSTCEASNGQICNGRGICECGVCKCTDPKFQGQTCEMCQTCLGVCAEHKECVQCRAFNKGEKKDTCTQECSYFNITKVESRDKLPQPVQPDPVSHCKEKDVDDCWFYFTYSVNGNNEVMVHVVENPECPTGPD

For the compound `CC(C)(C)c1cc(Br)c(O)c([C@H](CC(=O)O)NC(=O)CNC(=O)c2cc(O)cc(NC3=NCC(O)CN3)c2)c1` (stereo partly drawn) [Example 1, (3S)-3-(3-bromo-5-(tert-butyl)-2-hydroxyphenyl)-3-(2-(3-hydroxy-5-((5-hydroxy-1,4,5,6-tetrahydropyrimidin-2-yl)amino)benzamido)acetamido)propanoic acid], the concentration for half-maximal inhibition (IC50) in test [1] stood at 0.5 nM; in test [2], 0.1 nM.

Regarding `CC(C)(C)c1cc(Br)cc([C@H](CC(=O)O)NC(=O)CNC(=O)c2cc(O)cc(NC3=NCC(O)CN3)c2)c1O` (stereo partly drawn) [Example 2, (3S)-3-(5-bromo-3-(tert-butyl)-2-hydroxyphenyl)-3-(2-(3-hydroxy-5-((5-hydroxy-1,4,5,6-tetrahydropyrimidin-2-yl)amino)benzamido)acetamido)propanoic acid], the IC50 in test [1] turned out to be 0.5 nM; in test [2] it was 0.1 nM.

As for `CC(C)(O)c1cc(Br)cc([C@H](CC(=O)O)NC(=O)CNC(=O)c2cc(O)cc(NC3=NCC(O)CN3)c2)c1` (stereo partly drawn) [Example 3, (3S)-3-(3-bromo-5-(2-hydroxypropan-2-yl)phenyl)-3-(2-(3-hydroxy-5-((5-hydroxy-1,4,5,6-tetrahydropyrimidin-2-yl)amino)benzamido)acetamido)propanoic acid], the IC50 was 0.3 nM in test [1] and 0.4 nM in test [2].

With `CC(C)(O)c1cc(Cl)cc([C@H](CC(=O)O)NC(=O)CNC(=O)c2cc(O)cc(NC3=NCC(O)CN3)c2)c1` (stereo partly drawn) [Example 4, (3S)-3-(3-chloro-5-(2-hydroxypropan-2-yl)phenyl)-3-(2-(3-hydroxy-5-((5-hydroxy-1,4,5,6-tetrahydropyrimidin-2-yl)amino)benzamido)acetamido)propanoic acid], the IC50 in test [1] turned out to be 0.7 nM; in test [2] it was 0.6 nM.

In the case of `CC(C)(C)c1cc(Br)cc([C@H](CC(=O)O)NC(=O)CNC(=O)c2cccc(NC(=N)N)c2)c1` [Example 5, (S)-3-(3-bromo-5-(tert-butyl)phenyl)-3-(2-(3-guanidinobenzamido)acetamido) propanoic acid], the IC50 in test [1] is 0.6 nM; in test [2], 0.2 nM.

Turning to `CC(C)(C)c1cc(Br)cc([C@H](CC(=O)O)NC(=O)CNC(=O)c2cncc(NC(=N)N)c2)c1` [Example 6, (S)-3-(3-bromo-5-(tert-butyl)phenyl)-3-(2-(5-guanidinonicotinamido)acetamido) propanoic acid], the values for the IC50 in test [1] and in test [2] were 1 nM and 0.3 nM, respectively.

Turning to `CC(C)(C)c1cc(Br)cc([C@H](CC(=O)O)NC(=O)CNC(=O)c2cccc(NC3=NCCN3)c2)c1` [Example 7, (S)-3-(3-bromo-5-(tert-butyl)phenyl)-3-(2-(3-((4,5-dihydro-1H-imidazol-2-yl)amino)benzamido)acetamido)propanoic acid], the IC50 in test [1] was determined as 0.7 nM; in test [2] it was 0.1 nM.

Turning to `CC(C)(C)c1cc(Br)cc([C@H](CC(=O)O)NC(=O)CNC(=O)c2cncc(NC3=NCC(O)CN3)c2)c1` (stereo partly drawn) [Example 8, (3S)-3-(3-bromo-5-(tert-butyl)phenyl)-3-(2-(5-((5-hydroxy-1,4,5,6-tetrahydropyrimidin-2-yl)amino)nicotinamido)acetamido)propanoic acid], the IC50 is 0.4 nM in test [1] and 0.1 nM in test [2].

For the compound `CC(C)(C)c1cc(Br)cc([C@H](CC(=O)O)NC(=O)CNC(=O)c2cc(O)cc(NC3=NCCN3)c2)c1` [Example 9, (S)-3-(3-bromo-5-(tert-butyl)phenyl)-3-(2-(3-((4,5-dihydro-1H-imidazol-2-yl)amino)-5-hydroxybenzamido)acetamido)propanoic acid], the IC50 in test [1] is 0.5 nM; in test [2], 0.1 nM.

Consider `CC(C)(C)c1cc([C@H](CC(=O)O)NC(=O)CNC(=O)c2cncc(NC(=N)N)c2)cc(C(C)(C)C)c1` [Example 10, (S)-3-(3,5-di-tert-butylphenyl)-3-(2-(5-guanidinonicotinamido)acetamido)propanoic acid], for which the figures for the IC50 in test [1] and in test [2] were 0.5 nM and 0.2 nM, respectively.

For the compound `CC(C)(C#N)c1cc(Br)cc([C@H](CC(=O)O)NC(=O)CNC(=O)c2cc(O)cc(NC3=NCC(O)CN3)c2)c1` (stereo partly drawn) [Example 11, (3S)-3-(3-bromo-5-(2-cyanopropan-2-yl)phenyl)-3-(2-(3-hydroxy-5-((5-hydroxy-1,4,5,6-tetrahydropyrimidin-2-yl)amino)benzamido)acetamido)propanoic acid], the half-inhibitory concentration (IC50) in test [1] was found to be 0.3 nM; in test [2], 0.2 nM.

Turning to `CC(C)(C)c1cc(C#N)cc([C@H](CC(=O)O)NC(=O)CNC(=O)c2cc(O)cc(NC3=NCC(O)CN3)c2)c1` (stereo partly drawn) [Example 12, (3S)-3-(3-(tert-butyl)-5-cyanophenyl)-3-(2-(3-hydroxy-5-((5-hydroxy-1,4,5,6-tetrahydro-pyrimidin-2-yl)amino)benzamido)acetamido)propanoic acid], the values for the IC50 in test [1] and in test [2] were 0.3 nM and 0.2 nM, respectively.

`CC(C)(O)c1cc([C@H](CC(=O)O)NC(=O)CNC(=O)c2cc(O)cc(NC3=NCC(O)CN3)c2)cc(C(F)(F)F)c1` (stereo partly drawn) [Example 13, (3S)-3-(2-(3-hydroxy-5-((5-hydroxy-1,4,5,6-tetrahydropyrimidin-2-yl)amino)benzamido)acetamido)-3-(3-(2-hydroxypropan-2-yl)-5-(trifluoromethyl)phenyl)propanoic acid]: the IC50 in test [1] was 0.9 nM; in test [2], 0.6 nM.

As for `COCC(C)(C)c1cc(Cl)cc([C@H](CC(=O)O)NC(=O)CNC(=O)c2cc(O)cc(NC3=NCC(O)CN3)c2)c1` (stereo partly drawn) [Example 14, (3S)-3-(3-chloro-5-(1-methoxy-2-methylpropan-2-yl)phenyl)-3-(2-(3-hydroxy-5-((5-hydroxy-1,4,5,6-tetrahydropyrimidin-2-yl)amino)benzamido)acetamido)propanoic acid], the IC50 in test [1] came to 0.2 nM; in test [2], 0.3 nM.

Turning to `CC(C)(CO)c1cc(Cl)cc([C@H](CC(=O)O)NC(=O)CNC(=O)c2cc(O)cc(NC3=NCC(O)CN3)c2)c1` (stereo partly drawn) [Example 15, (3S)-3-(3-chloro-5-(1-hydroxy-2-methylpropan-2-yl)phenyl)-3-(2-(3-hydroxy-5-((5-hydroxy-1,4,5,6-tetrahydropyrimidin-2-yl)amino)benzamido)acetamido)propanoic acid], the figures for the IC50 in test [1] and in test [2] were 0.4 nM and 0.3 nM, respectively.

On to `COCC1(c2cc(Cl)cc([C@H](CC(=O)O)NC(=O)CNC(=O)c3cc(O)cc(NC4=NCC(O)CN4)c3)c2)CCOCC1` (stereo partly drawn) [Example 16, (3S)-3-(3-chloro-5-(4-(Methoxymethyl)tetrahydro-2H-pyran-4-yl)phenyl)-3-(2-(3-hydroxy-5-((5-hydroxy-1,4,5,6-tetrahydropyrimidin-2-yl)amino)benzamido)acetamido)propanoic acid], for which the IC50 was found to be 0.5 nM in test [1] and 0.4 nM in test [2].

Turning to `O=C(O)C[C@H](NC(=O)CNC(=O)c1cc(O)cc(NC2=NCC(O)CN2)c1)c1cc(Cl)cc(C2(CO)CCOCC2)c1` (stereo partly drawn) [Example 17, (3S)-3-(3-chloro-5-(4-(hydroxymethyl)tetrahydro-2H-pyran-4-yl)phenyl)-3-(2-(3-hydroxy-5-((5-hydroxy-1,4,5,6-tetrahydropyrimidin-2-yl)amino)benzamido)acetamido)propanoic acid], the IC50 in test [1] and in test [2] was 0.4 nM in each case.

As for `CC(C)(C)c1cc(-c2cccnc2)cc([C@H](CC(=O)O)NC(=O)CNC(=O)c2cc(O)cc(NC3=NCC(O)CN3)c2)c1` (stereo partly drawn) [Example 18, (3S)-3-(3-(tert-butyl)-5-(pyridin-3-yl)phenyl)-3-(2-(3-hydroxy-5-((5-hydroxy-1,4,5,6-tetrahydropyrimidin-2-yl)amino)benzamido)acetamido)propanoic acid], the IC50 amounted to 0.4 nM in test [1] and 0.3 nM in test [2].

Turning to `CC(C)(C)c1cc(-c2cncnc2)cc([C@H](CC(=O)O)NC(=O)CNC(=O)c2cc(O)cc(NC3=NCC(O)CN3)c2)c1` (stereo partly drawn) [Example 19, (3S)-3-(3-(tert-butyl)-5-(pyrimidin-5-yl)phenyl)-3-(2-(3-hydroxy-5-((5-hydroxy-1,4,5,6-tetrahydropyrimidin-2-yl)amino)benzamido)acetamido)propanoic acid], the IC50 in test [1] and in test [2] was 0.4 nM throughout.
